Data: US7074789B2, “Kinase inhibitors” (Amgen Inc., priority 1999, dated 2006)

How the values were obtained:
Assay type in all cases: biochemical
Lck = target: T1, Lck (Homo sapiens, UniProt P06239); assay: Kinase inhibition assay (33P transfer), Lck; settings: Table 3; read-out: Lck-1
T1 construct: Kinases are expressed as either kinase domains or full length constructs; made in house
Method in brief: (§1)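 Activity was read as 33P incorporation, counted by liquid scintillation after a 0.5% phosphoric acid wash, into poly(Glu,Tyr) 4:1 or poly(Arg,Ser) 3:1 substrates coated on plates. Enzymes were tagged (GST or polyHis) kinase domains or full-length proteins from bacterial or insect-cell expression, sometimes with regulatory polypeptides.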

PDGFRB = target: T2, PDGFRB (Homo sapiens, UniProt P09619); assay: Kinase inhibition assay (33P transfer), PDGFRB; settings: read-out: PDGFRB-1
T2 construct: Kinases are expressed as either kinase domains or full length constructs; made in house

Tek = target: T3, Tek (Homo sapiens, UniProt Q02763); assay: Kinase inhibition assay (33P transfer), Tek; settings: read-out: Tek-1
T3 construct: Kinases are expressed as either kinase domains or full length constructs; made in house
T3 sequence (Q02763 23-1124, species assumed): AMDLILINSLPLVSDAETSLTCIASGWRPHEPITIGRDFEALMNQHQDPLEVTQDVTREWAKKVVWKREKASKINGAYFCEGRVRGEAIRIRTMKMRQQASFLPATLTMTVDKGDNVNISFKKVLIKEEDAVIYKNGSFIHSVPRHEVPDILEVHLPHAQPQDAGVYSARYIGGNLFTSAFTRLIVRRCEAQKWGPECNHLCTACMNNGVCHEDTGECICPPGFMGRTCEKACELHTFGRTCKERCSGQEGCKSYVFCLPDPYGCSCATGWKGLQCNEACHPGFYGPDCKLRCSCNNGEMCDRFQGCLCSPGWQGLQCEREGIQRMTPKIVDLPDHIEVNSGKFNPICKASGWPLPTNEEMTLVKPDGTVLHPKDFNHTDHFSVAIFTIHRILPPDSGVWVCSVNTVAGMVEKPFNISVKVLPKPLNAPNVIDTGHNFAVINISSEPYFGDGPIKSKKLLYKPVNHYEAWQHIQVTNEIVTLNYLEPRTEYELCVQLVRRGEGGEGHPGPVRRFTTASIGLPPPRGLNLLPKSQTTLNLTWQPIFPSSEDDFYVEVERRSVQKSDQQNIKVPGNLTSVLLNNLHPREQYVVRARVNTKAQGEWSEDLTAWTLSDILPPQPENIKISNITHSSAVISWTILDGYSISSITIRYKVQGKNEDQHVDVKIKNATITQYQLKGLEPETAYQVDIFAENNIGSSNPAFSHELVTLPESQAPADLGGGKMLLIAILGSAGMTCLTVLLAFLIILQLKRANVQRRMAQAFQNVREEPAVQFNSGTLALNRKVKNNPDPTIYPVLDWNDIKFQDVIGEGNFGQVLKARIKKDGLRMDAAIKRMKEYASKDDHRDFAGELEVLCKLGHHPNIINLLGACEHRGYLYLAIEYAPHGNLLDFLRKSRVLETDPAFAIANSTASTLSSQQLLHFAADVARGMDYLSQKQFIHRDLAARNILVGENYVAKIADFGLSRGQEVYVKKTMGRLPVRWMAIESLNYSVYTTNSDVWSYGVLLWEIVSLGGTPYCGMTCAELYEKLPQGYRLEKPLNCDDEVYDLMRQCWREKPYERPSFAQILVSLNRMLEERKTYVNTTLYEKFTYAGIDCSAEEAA
Method in brief: (§2)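 Steps: coat wells with poly(Glu,Tyr) 4:1 or poly(Arg,Ser) 3:1; add purified kinase, [33P]ATP and inhibitor; incubate; wash with 0.5% phosphoric acid; add liquid scintillant; count. IC50 corresponds to half-maximal reduction of bound 33P.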

c-Met = target: T4, c-Met (Homo sapiens, UniProt P08581); assay: Kinase inhibition assay (33P transfer), c-Met; settings: Table 2, kinase inhibition class; read-out: Met-1
T4 construct: Kinases are expressed as either kinase domains or full length constructs; made in house
T4 sequence (P08581 25-1390): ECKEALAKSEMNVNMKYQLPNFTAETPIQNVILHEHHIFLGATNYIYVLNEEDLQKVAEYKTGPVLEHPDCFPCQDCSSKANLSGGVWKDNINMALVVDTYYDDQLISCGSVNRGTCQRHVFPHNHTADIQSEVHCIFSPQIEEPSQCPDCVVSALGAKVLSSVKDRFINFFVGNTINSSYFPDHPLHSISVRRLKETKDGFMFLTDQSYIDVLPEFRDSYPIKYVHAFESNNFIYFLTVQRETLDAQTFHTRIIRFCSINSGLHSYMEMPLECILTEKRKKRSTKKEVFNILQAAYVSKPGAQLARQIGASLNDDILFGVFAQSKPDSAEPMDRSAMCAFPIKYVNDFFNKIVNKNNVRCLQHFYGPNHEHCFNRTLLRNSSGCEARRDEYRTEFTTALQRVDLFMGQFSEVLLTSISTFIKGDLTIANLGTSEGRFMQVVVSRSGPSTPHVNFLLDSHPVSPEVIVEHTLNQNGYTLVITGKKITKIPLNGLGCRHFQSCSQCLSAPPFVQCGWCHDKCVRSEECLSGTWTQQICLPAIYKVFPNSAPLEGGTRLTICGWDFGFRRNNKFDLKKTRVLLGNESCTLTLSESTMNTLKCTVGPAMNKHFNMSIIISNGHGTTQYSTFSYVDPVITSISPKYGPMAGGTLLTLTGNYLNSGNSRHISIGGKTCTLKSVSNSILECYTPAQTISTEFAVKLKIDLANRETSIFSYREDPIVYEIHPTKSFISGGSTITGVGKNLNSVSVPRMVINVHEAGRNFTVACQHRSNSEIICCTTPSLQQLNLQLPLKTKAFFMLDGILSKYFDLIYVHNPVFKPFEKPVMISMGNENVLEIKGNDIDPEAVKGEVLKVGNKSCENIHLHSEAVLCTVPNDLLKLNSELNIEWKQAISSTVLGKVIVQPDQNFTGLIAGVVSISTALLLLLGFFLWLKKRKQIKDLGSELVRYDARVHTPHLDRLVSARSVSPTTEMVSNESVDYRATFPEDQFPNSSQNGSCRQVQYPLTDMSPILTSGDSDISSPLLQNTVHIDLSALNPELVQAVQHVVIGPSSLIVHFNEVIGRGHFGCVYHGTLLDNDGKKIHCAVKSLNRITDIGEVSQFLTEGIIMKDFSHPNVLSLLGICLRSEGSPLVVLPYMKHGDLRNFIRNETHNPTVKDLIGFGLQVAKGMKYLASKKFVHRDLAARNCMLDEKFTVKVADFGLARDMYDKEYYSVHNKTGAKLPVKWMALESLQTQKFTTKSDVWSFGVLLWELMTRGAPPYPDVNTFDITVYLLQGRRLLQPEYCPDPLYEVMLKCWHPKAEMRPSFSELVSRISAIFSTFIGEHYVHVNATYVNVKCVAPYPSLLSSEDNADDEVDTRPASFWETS
Method in brief: as §2

Itk = target: T5, Itk (Homo sapiens, UniProt Q08881); assay: Kinase inhibition assay (33P transfer), Itk; settings: Table 3; read-out: Itk-1
T5 construct: Kinases are expressed as either kinase domains or full length constructs; made in house
T5 sequence (Q08881 1-620): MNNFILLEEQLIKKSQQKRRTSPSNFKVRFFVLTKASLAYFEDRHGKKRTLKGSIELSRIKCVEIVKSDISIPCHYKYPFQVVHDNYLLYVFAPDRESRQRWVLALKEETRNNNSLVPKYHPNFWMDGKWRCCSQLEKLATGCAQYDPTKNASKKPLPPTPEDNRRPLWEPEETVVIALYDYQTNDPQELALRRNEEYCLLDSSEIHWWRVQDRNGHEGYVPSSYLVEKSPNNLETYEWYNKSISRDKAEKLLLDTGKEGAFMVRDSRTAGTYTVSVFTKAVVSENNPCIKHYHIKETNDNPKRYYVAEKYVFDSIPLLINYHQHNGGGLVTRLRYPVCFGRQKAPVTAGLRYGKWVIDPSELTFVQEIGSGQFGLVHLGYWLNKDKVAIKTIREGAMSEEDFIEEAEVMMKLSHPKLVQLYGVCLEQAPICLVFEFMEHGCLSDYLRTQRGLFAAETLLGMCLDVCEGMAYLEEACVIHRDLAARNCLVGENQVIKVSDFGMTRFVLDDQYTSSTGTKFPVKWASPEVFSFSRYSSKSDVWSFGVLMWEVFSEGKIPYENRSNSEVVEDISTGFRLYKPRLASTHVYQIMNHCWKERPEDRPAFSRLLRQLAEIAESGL
Method in brief: as §2

AKT = target: T6, AKT (Homo sapiens, UniProt Q9Y243); assay: Kinase inhibition assay (33P transfer), AKT; settings: Table 2, kinase inhibition class; read-out: AKT3-1
T6 construct: Kinases are expressed as either kinase domains or full length constructs; made in house
T6 sequence (Q9Y243 whole entry, the tested form may be a part): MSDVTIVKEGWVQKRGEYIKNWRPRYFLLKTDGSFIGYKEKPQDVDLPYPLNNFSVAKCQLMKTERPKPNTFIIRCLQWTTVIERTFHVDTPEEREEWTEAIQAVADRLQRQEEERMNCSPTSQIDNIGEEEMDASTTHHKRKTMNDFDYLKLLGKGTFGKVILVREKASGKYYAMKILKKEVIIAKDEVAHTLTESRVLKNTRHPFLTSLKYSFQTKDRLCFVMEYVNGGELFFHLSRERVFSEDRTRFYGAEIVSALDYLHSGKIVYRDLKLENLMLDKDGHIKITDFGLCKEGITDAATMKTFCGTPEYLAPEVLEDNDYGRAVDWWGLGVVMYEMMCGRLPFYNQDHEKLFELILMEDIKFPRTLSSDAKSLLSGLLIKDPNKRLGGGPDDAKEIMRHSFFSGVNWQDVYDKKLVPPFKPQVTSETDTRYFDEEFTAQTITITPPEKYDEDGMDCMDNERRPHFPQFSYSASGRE
Method in brief: as §1

EGFR = target: T7, EGFR (Homo sapiens, UniProt P00533); assay: Kinase inhibition assay (33P transfer), EGFR; settings: Table 2, kinase inhibition class; read-out: EGFR-1
T7 construct: Kinases are expressed as either kinase domains or full length constructs; made in house
T7 sequence (P00533 25-1210, species assumed): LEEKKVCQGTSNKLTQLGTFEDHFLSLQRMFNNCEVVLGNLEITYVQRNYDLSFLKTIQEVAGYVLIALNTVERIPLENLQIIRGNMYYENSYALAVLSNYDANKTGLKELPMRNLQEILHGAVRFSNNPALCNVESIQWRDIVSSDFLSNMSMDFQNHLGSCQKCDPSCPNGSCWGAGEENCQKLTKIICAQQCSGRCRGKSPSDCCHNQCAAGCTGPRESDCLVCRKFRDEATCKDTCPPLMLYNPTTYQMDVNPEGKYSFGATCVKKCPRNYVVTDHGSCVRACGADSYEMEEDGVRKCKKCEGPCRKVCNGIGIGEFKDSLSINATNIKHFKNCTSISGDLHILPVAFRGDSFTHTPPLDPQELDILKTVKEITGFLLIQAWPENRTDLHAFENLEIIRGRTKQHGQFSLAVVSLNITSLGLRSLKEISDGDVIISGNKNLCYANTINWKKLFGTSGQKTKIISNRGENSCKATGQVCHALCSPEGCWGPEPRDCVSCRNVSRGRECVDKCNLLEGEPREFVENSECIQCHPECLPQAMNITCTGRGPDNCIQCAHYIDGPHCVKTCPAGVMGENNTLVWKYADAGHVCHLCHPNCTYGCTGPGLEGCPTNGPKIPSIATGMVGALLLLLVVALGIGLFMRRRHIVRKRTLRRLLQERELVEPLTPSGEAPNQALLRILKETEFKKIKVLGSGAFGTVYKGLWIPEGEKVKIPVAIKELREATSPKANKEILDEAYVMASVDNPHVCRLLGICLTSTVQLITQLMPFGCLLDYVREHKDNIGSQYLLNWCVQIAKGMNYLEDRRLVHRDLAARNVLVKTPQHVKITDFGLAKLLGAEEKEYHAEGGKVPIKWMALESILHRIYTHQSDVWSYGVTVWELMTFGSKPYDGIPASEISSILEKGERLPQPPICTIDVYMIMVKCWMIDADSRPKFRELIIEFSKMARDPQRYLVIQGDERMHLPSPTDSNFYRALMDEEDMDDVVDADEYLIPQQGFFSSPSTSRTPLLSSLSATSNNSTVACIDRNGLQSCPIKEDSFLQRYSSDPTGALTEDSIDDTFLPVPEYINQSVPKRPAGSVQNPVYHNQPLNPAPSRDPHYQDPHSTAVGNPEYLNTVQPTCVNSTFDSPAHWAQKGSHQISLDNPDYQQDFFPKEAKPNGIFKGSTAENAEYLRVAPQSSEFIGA
Method in brief: as §2

FGFR1 = target: T8, FGFR1 (Homo sapiens, UniProt P11362); assay: Kinase inhibition assay (33P transfer), FGFR1; settings: read-out: FGFR1-1
T8 construct: Kinases are expressed as either kinase domains or full length constructs; made in house
T8 sequence (P11362 22-822, species assumed): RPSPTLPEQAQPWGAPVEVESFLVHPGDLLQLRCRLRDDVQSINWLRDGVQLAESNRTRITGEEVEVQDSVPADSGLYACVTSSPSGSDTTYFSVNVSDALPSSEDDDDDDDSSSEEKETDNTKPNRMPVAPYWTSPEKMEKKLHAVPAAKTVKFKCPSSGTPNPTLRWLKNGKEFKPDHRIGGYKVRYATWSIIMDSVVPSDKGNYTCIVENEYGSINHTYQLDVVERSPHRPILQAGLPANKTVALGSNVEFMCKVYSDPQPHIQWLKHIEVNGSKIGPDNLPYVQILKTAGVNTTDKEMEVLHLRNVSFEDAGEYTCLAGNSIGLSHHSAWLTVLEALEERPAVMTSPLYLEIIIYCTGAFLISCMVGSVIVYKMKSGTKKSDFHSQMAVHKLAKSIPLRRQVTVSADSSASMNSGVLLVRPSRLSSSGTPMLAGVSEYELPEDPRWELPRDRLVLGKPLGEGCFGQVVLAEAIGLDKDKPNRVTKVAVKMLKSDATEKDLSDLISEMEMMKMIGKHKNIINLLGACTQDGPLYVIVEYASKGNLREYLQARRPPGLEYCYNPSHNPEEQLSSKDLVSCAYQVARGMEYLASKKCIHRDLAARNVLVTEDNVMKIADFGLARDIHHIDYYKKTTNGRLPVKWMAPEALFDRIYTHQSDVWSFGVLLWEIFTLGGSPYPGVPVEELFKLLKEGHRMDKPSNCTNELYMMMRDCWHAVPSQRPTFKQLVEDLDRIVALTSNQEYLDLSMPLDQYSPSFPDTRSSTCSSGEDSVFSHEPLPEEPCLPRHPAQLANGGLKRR

IGFR-1 = target: T9, IGFR-1 (Homo sapiens, UniProt P08069); assay: Kinase inhibition assay (33P transfer), IGFR-1; settings: Table 2, kinase inhibition class
T9 construct: Kinases are expressed as either kinase domains or full length constructs; made in house

Fyn = target: T10, Fyn (Homo sapiens, UniProt P06241); assay: Kinase inhibition assay (33P transfer), Fyn; settings: read-out: Fyn-1
T10 construct: Kinases are expressed as either kinase domains or full length constructs; made in house
Method in brief: as §2

Compound	IC50 (Lck)	IC50 (PDGFRB)	IC50 (Tek)	IC50 (c-Met)	IC50 (Itk)	IC50 (AKT)	IC50 (EGFR)	IC50 (FGFR1)	IC50 (IGFR-1)	IC50 (Fyn)
COc1cc(Nc2ncnc(Nc3ccc(OCc4ccccc4)cc3)n2)cc(OC)c1OC [Compound 926]	0.871 to 5.22 µM	< 0.871 µM	7.62 to 9.79 µM	7.62 to 9.79 µM	> 9.79 µM	> 9.79 µM	0.871 to 5.22 µM	0.871 to 5.22 µM	> 9.79 µM	5.22 to 7.62 µM
COc1cccc(Nc2ncnc(Nc3cc(OC)c(OC)c(OC)c3)n2)c1 [Compound 87]	1.04 to 6.26 µM	< 1.04 µM	> 11.7 µM	> 11.7 µM	> 11.7 µM	> 11.7 µM	1.04 to 6.26 µM	6.26 to 9.13 µM	< 1.04 µM	1.04 to 6.26 µM
COc1cc(Nc2ncnc(-n3c(Nc4cccc(C)c4)nc4ccccc43)n2)cc(OC)c1OC [Compound 386]	4.96 to 7.24 µM	0.827 to 4.96 µM	> 9.31 µM	> 9.31 µM	> 9.31 µM	> 9.31 µM	> 9.31 µM	< 0.827 µM	> 9.31 µM	> 9.31 µM
COc1cc(Nc2ncnc(Nc3ccc(C(C)C)cc3)n2)cc(OC)c1OC [Compound 66]	1.01 to 6.07 µM	> 11.4 µM	6.07 to 8.85 µM	1.01 to 6.07 µM	> 11.4 µM	> 11.4 µM	> 11.4 µM	> 11.4 µM	< 1.01 µM	> 11.4 µM
COc1cc(Nc2ncnc(-n3c(Nc4ccc5[nH]ccc5c4)nc4ccccc43)n2)cc(OC)c1OC [Compound 376]	< 0.787 µM	< 0.787 µM	0.787 to 4.72 µM	4.72 to 6.88 µM	0.787 to 4.72 µM	> 8.85 µM	6.88 to 8.85 µM	< 0.787 µM	0.787 to 4.72 µM	0.787 to 4.72 µM
COc1cc(Nc2ncnc(-n3cc(CC(N)=O)c4ccccc43)n2)cc(OC)c1OC [Compound 353]	8.06 to 10.4 µM	< 0.921 µM	> 10.4 µM	> 10.4 µM	0.921 to 5.52 µM	> 10.4 µM	> 10.4 µM	0.921 to 5.52 µM	> 10.4 µM	8.06 to 10.4 µM
COc1cc(Nc2ncnc(-c3ccnc(NCCCO)c3)n2)cc(OC)c1OC [Compound 180]	0.97 to 5.82 µM	8.49 to 10.9 µM	> 10.9 µM	> 10.9 µM	> 10.9 µM	> 10.9 µM	> 10.9 µM	> 10.9 µM	> 10.9 µM	5.82 to 8.49 µM
COc1cc(Nc2ncnc(Nc3cc(Cl)c(O)c(Cl)c3)n2)cc(OC)c1OC [Compound 68]	< 0.913 µM	0.913 to 5.48 µM	> 10.3 µM	7.99 to 10.3 µM	> 10.3 µM	> 10.3 µM	< 0.913 µM	> 10.3 µM	< 0.913 µM	> 10.3 µM
COc1cc(Nc2ncnc(Nc3cccc(Br)c3)n2)cc(OC)c1OC [Compound 75]	0.925 to 5.55 µM	> 10.4 µM	> 10.4 µM	8.1 to 10.4 µM	> 10.4 µM	8.1 to 10.4 µM	< 0.925 µM	8.1 to 10.4 µM	< 0.925 µM	0.925 to 5.55 µM
COc1cc(Nc2ncnc(Nc3cc(OC)c(OC)c(OC)c3)n2)cc(OC)c1 [Compound 86]	0.968 to 5.81 µM	0.968 to 5.81 µM	> 10.9 µM	> 10.9 µM	> 10.9 µM	> 10.9 µM	> 10.9 µM	> 10.9 µM	< 0.968 µM	8.47 to 10.9 µM
COC(=O)c1cccc(Nc2ncnc(Nc3cc(-c4ccco4)n[nH]3)n2)c1 [Compound 344]	1.06 to 6.36 µM	6.36 to 9.27 µM	> 11.9 µM	1.06 to 6.36 µM	> 11.9 µM	> 11.9 µM	> 11.9 µM	< 1.06 µM	1.06 to 6.36 µM	> 11.9 µM
COc1cc(Nc2ncnc(-n3c(N)nc4ccccc43)n2)cc(OC)c1OC [Compound 289]	< 1.02 µM	< 1.02 µM	1.02 to 6.1 µM	1.02 to 6.1 µM	1.02 to 6.1 µM	> 11.4 µM	> 11.4 µM	< 1.02 µM	< 1.02 µM	1.02 to 6.1 µM
NC(=O)c1ccc(Nc2ncnc(Nc3cc(-c4ccco4)n[nH]3)n2)cc1 [Compound 341]	6.62 to 9.66 µM	< 1.1 µM	> 12.4 µM	1.1 to 6.62 µM	6.62 to 9.66 µM	> 12.4 µM	6.62 to 9.66 µM	< 1.1 µM	1.1 to 6.62 µM	> 12.4 µM
COc1cc(Nc2ncnc(Nc3ccc4[nH]ccc4c3)n2)cc(OC)c1OC [Compound 928]	< 1.02 µM	< 1.02 µM	> 11.5 µM	6.12 to 8.92 µM	6.12 to 8.92 µM	8.92 to 11.5 µM	< 1.02 µM	1.02 to 6.12 µM	< 1.02 µM	> 11.5 µM
COc1cc(Nc2ncnc(Nc3ccccc3C)n2)cc(OC)c1OC [Compound 67]	1.09 to 6.53 µM	1.09 to 6.53 µM	> 12.2 µM	> 12.2 µM	> 12.2 µM	> 12.2 µM	6.53 to 9.53 µM	> 12.2 µM	9.53 to 12.2 µM	9.53 to 12.2 µM
COc1cc(Nc2ncnc(Nc3ccc4[nH]ncc4c3)n2)cc(OC)c1OC [Compound 79]	< 1.02 µM	1.02 to 6.1 µM	> 11.4 µM	6.1 to 8.9 µM	< 1.02 µM	> 11.4 µM	< 1.02 µM	6.1 to 8.9 µM	< 1.02 µM	1.02 to 6.1 µM
COc1cc(Nc2ncnc(-n3c(Nc4ccc(C(C)C)cc4)nc4ccccc43)n2)cc(OC)c1OC [Compound 388]	0.782 to 4.69 µM	0.782 to 4.69 µM	> 8.8 µM	> 8.8 µM	> 8.8 µM	> 8.8 µM	> 8.8 µM	4.69 to 6.84 µM	> 8.8 µM	> 8.8 µM
NC(=O)c1ccc(Nc2ncnc(-n3c(N)nc4ccccc43)n2)cc1 [Compound 396]	1.15 to 6.93 µM	1.15 to 6.93 µM	1.15 to 6.93 µM	1.15 to 6.93 µM	< 1.15 µM	6.93 to 10.1 µM	6.93 to 10.1 µM	< 1.15 µM	< 1.15 µM	1.15 to 6.93 µM
COc1cc(Nc2ncnc(Nc3ccc4cn[nH]c4c3)n2)cc(OC)c1OC [Compound 70]	1.02 to 6.1 µM	< 1.02 µM	> 11.4 µM	> 11.4 µM	8.9 to 11.4 µM	> 11.4 µM	1.02 to 6.1 µM	1.02 to 6.1 µM	1.02 to 6.1 µM	> 11.4 µM
COc1cc(Nc2ncnc(Nc3ccc(Oc4ccccc4)cc3)n2)cc(OC)c1OC [Compound 29]	< 0.898 µM	0.898 to 5.39 µM	> 10.1 µM	7.86 to 10.1 µM	> 10.1 µM	> 10.1 µM	< 0.898 µM	< 0.898 µM	5.39 to 7.86 µM	< 0.898 µM
COc1cc(Nc2ncnc(Nc3ccc(O)cc3)n2)cc(OC)c1OC [Compound 85]	< 1.08 µM	< 1.08 µM	> 12.2 µM	> 12.2 µM	1.08 to 6.5 µM	> 12.2 µM	1.08 to 6.5 µM	< 1.08 µM	1.08 to 6.5 µM	< 1.08 µM
COc1cc(Nc2ncnc(-n3c(Nc4cccc(C(N)=O)c4)nc4ccccc43)n2)cc(OC)c1OC [Compound 377]	0.78 to 4.68 µM	< 0.78 µM	6.83 to 8.78 µM	6.83 to 8.78 µM	6.83 to 8.78 µM	> 8.78 µM	> 8.78 µM	< 0.78 µM	4.68 to 6.83 µM	> 8.78 µM
COc1cc(Nc2ncnc(-n3c(Nc4ccccc4C)nc4ccccc43)n2)cc(OC)c1OC [Compound 384]	< 0.827 µM	< 0.827 µM	> 9.31 µM	7.24 to 9.31 µM	> 9.31 µM	> 9.31 µM	7.24 to 9.31 µM	0.827 to 4.96 µM	> 9.31 µM	0.827 to 4.96 µM
